Assay results from patent US8057659B2, “Detection of analytes in a dual-mediator electrochemical test strip” (AgaMatrix, Inc., priority 2006, dated 2011).

Assays:
[1] = Redox potential of the mediator; format: physicochemical
Text: Another specific mediator is [Os(Mebpy)2Pic]^+/2+.

GOX = GOX (Aspergillus niger, UniProt P13006); conditions: 3+ form of mediator
GOX, sequence (P13006 17-605, species assumed): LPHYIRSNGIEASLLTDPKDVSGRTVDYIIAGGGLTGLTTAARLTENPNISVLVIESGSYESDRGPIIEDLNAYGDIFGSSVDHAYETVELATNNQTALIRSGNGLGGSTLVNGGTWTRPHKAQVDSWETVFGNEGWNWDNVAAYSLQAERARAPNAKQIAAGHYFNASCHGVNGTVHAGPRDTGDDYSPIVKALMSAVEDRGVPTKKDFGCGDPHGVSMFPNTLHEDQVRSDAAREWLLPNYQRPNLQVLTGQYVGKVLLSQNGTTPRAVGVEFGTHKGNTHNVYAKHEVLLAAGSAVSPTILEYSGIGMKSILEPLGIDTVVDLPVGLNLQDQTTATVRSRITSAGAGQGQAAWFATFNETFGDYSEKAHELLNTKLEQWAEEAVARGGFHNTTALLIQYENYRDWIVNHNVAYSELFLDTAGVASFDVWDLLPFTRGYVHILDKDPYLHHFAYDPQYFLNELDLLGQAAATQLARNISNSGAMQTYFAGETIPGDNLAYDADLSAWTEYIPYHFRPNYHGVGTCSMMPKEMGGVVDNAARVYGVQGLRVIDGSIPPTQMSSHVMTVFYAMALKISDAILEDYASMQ

[Os(MeBpy)2(Im)2]^2+/3+
redox potential E^o [1]: 140-154 mV | second order rate constant of electron transfer from GOX to the 3+ mediator (GOX): approximately 4.0×10^5 M^−1s^−1
